Consider 20 compounds from US11472805B2, “Tricyclic compounds and their use as phosphodiesterase inhibitors” (Pfizer Inc., priority 2015, dated 2022).

One experiment concerns the target Human PDE4B1 (Homo sapiens (Human), UniProt Q07343, S133E/S654A/S659A/S661A). The experiment can be described thus: PDE4B1 Scintillation Proximity Assay (SPA), inhibition of enzyme activity. It counts as biochemical. Conditions: read-out: Human PDE4B FL. As for the experimental part:
(§1) The PDE4A, PDE4B, PDE4C and PDE4D binding affinity for the compounds of the present invention was determined utilizing the following biological assay(s):
The recombinant Bacmid was isolated and used to transfect insect cells to generate a viral stock. To generate cell paste for purification, insect cells were infected with the virus stock and cells were harvested 72 hours after infection as described in Seeger, T. F. et al., Brain Research 985 (2003) 113-126. Insect cell paste was lysed and after centrifugation, the supernatant was chromatographed on Ni-NTA agarose (Qiagen) as described in Seeger, T. F. et al., Brain Research 985 (2003) 113-126. Ni-NTA agarose eluting fractions containing PDE4 were pooled, diluted with Q buffer A (20 mM Tris HCl pH 8, 5% glycerol, 1 mM TCEP) to reduce NaCl to ˜100 mM and loaded on a Source 15Q (GE Healthcare) column. After washing with Q buffer A/10% buffer B to baseline, PDE4D was eluted with a gradient from 10% to 60% of Buffer B (20 mM Tris HCl pH 8, 1 M NaCl, 5% glycerol, 1 mM TCEP). PDE4D fractions were analyzed by SDS-PAGE Coomassie blue staining, pooled based on purity, frozen and stored at −80° C.
(§2) The PDE4A3, PDE4B1, PDE4C1 and PDE4D3 assays use the Scintillation Proximity Assay (SPA) technology to measure the inhibition of human recombinant PDE4A1, PDE4B3, PDE4C1, and PDE4D3 enzyme activity by compounds in vitro. The PDE4A1, PDE4B3, PDE4C1, and PDE4D3 assays are run in parallel using identical parameters, except for the concentration of enzyme ([…]). The assays are performed in a 384-well format with 50 uL assay buffer (50 mM TRIS pH7.5; 1.3 mM MgCl2; 0.01% Brij) containing enough PDE4A3, PDE4B1, PDE4C1, and PDE4D to convert ˜20% of substrate (1 μM cAMP consisting of 20 nM 3H-cAMP+[…] cold cAMP) and a range of inhibitors. Reactions are incubated for 30 min at 25° C. The addition of 20 uL of 8 mg/ml yitrium silicate SPA beads (Perkin Elmer) stops the reaction. The plates are sealed (TopSeal, Perkin Elmer) and the beads are allowed to settle for 8 hrs, after which they are read on the Trilux Microbeta overnight.
A general note: SPA uses beads or plates that emit light when radiolabelled molecules are held near them.

The next experiment concerns the target human PDE4D3 (Homo sapiens (Human), UniProt Q08499). The experiment can be described thus: PDE4D3 Scintillation Proximity Assay (SPA), inhibition of enzyme activity. It counts as biochemical. Conditions: read-out: Human PDE4D FL. The method, then: as §1
A portion of the human PDE4D3 coding sequence (amino acids 50 to 672 from the sequence with accession number Q08499-2) was cloned into the baculovirus expression vector pFastBac (Invitrogen) engineered to include a C-terminal His6 affinity tag to aid in purification as described in Seeger, T. F. et al., Brain Research 985 (2003) 113-126. The recombinant Bacmid was isolated and used to transfect insect cells to generate a viral stock. To generate cell paste for purification, insect cells were infected and cells were harvested 72 hours after infection. Insect cell paste was lysed and after centrifugation, the supernatant was chromatographed on Ni-NTA agarose (Qiagen) as described in Seeger, T. F. et al., Brain Research 985 (2003) 113-126. Ni-NTA agarose eluting fractions containing PDE4 were pooled, diluted with Q Buffer A (50 mM Tris HCl pH 8, 4% glycerol, 100 mM NaCl, 1 mM TCEP, Protease inhibitors EDTA-free (Roche)) to reduce NaCl to ˜200 mM, and loaded on a Q Sepharose (GE Healthcare) column. After washing with Q buffer A to baseline, PDE4D was eluted with a gradient from 10% to 60% of Buffer B (50 mM Tris HCl pH 8, 1 M NaCl, 4% glycerol, 1 mM TCEP). PDE4D fractions were analyzed by SDS-PAGE Coomassie blue staining, pooled based on purity, frozen and stored at −80° C.
as §2

[1] abbreviates: Table 10, geometric mean of 2-9 determinations unless otherwise indicated.
The mark [2] stands for this setting: Table 9, geometric mean of 2-9 determinations unless otherwise indicated.

Where a name gives a salt, the structure may show the parent alone. Read-outs that look alike come from different tables or passages of the source.

Human PDE4B1, sequence (Q07343 122-736 S133E/S654A/S659A/S661A): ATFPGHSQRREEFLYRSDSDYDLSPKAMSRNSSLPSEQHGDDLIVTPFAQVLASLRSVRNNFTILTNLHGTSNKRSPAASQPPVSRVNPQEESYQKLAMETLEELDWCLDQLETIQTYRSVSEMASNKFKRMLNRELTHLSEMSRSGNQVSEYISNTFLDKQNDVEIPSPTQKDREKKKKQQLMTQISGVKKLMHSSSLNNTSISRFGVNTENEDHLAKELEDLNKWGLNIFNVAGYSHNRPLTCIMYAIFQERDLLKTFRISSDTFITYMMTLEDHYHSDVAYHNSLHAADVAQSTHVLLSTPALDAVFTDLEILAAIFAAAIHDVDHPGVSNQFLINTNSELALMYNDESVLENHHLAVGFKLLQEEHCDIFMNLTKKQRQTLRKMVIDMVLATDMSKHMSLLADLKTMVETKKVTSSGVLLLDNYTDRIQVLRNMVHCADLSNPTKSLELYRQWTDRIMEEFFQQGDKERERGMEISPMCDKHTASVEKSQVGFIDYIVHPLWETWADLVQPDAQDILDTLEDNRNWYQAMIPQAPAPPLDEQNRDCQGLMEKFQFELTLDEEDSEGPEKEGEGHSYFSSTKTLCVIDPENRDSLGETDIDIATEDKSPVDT
human PDE4D3, sequence (Q08499 186-808): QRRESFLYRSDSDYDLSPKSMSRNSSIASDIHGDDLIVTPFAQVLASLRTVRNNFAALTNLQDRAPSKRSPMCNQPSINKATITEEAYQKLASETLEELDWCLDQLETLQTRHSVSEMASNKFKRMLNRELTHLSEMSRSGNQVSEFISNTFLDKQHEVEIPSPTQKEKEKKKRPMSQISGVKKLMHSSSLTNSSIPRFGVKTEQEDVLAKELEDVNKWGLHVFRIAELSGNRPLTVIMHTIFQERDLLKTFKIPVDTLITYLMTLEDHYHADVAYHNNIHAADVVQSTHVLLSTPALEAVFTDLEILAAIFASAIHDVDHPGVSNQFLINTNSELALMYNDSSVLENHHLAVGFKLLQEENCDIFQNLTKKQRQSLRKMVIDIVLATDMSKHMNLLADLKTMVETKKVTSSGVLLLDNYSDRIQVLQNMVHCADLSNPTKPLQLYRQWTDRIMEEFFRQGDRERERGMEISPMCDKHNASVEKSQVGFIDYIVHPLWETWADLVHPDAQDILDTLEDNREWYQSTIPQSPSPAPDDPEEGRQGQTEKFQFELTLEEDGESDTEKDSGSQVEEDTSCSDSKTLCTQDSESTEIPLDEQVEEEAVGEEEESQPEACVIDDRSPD

Consider `CC(=O)N1CCn2c(c(-c3ccc(Cl)cc3)c3ncccc32)C1=O` [Example 78, 8-Acetyl-10-(4-chlorophenyl)-7,8-dihydropyrido[2′,3′:4,5]pyrrolo[1,2-a]pyrazin-9(6H)-one], for which the IC50 on Human PDE4B1 (setting [1]) amounted to 59.5 nM; at human PDE4D3 (setting [1]), 30.6 nM.

For the compound `N#Cc1ccc(-c2c3n(c4cccnc24)CCN(C2CC2)C3=O)cc1` [Example 43, 4-(8-Cyclopropyl-9-oxo-6,7,8,9-tetrahydropyrido[2′,3′:4,5]pyrrolo[1,2-a]pyrazin-10-yl)benzonitrile], the IC50 at Human PDE4B1 (setting [2]) is 26.5 nM; at human PDE4D3 (setting [2]), 1470 nM.

For `O=C1c2c(-c3ccsc3)c3ncccc3n2CCN1C1CC1` [Example 39, 8-Cyclopropyl-10-(thiophen-3-yl)-7,8-dihydropyrido[2′,3′:4,5]pyrrolo[1,2-a]pyrazin-9(6H)-one], the IC50 on Human PDE4B1 (setting [2]) came out at 78.7 nM; on human PDE4D3 (setting [2]), 1720 nM.

On to `O=C1c2c(-c3ccc(Cl)cc3)c3ncccc3n2CC2CCN12` (stereo not shown) [Example 67, 11-(4-Chlorophenyl)-6,6a,7,8-tetrahydro-10H-azeto[1,2-a]pyrido[2′,3′:4,5]pyrrolo[1,2-d]pyrazin-10-one], for which the values for the IC50 on Human PDE4B1 (setting [2]) and at human PDE4D3 (setting [2]) were 4.93 nM and 862 nM, respectively.

`COc1cc(-c2c3n(c4cccnc24)CCN(C2CC2)C3=O)c(F)cc1Cl` [Example 15, 10-(4-Chloro-2-fluoro-5-methoxyphenyl)-8-cyclopropyl-7,8-dihydropyrido[2′,3′: 4,5]pyrrolo[1,2-a]pyrazin-9(6H)-one]: the IC50 at Human PDE4B1 (setting [2]) came out at 6.87 nM; at human PDE4D3 (setting [2]) it was 442 nM.

As for `Cc1ccc(-c2c3n(c4nccnc24)CCN(C2CC2)C3=O)cn1` [Example 83, 8-Cyclopropyl-10-(6-methylpyridin-3-yl)-7,8-dihydropyrrolo[1,2-a:4,5-b′]dipyrazin-9(6H)-one], the IC50 at Human PDE4B1 (setting [1]) is 15400 nM; at human PDE4D3 (setting [1]), over 29700 nM.

Regarding `O=C1c2c(-n3cccn3)c3ncccc3n2CCN1C1CC1` [Example 92, 8-Cyclopropyl-10-(1H-pyrazol-1-yl)-7,8-dihydropyrido[2′,3′:4,5]pyrrolo[1,2-a]pyrazin-9(6H)-one], the IC50 on Human PDE4B1 (setting [1]) was 15300 nM; on human PDE4D3 (setting [1]), over 29900 nM.

For the compound `Cc1cc(Cl)ccc1-c1c2n(c3cccnc13)CCN(C1CC1)C2=O` [Example 56, 10-(4-Chloro-2-methylphenyl)-8-cyclopropyl-7,8-dihydropyrido[2′,3′:4,5]pyrrolo[1,2-a]pyrazin-9(6H)-one], the IC50 was found to be 5.52 nM at Human PDE4B1 (setting [2]) and 253 nM at human PDE4D3 (setting [2]).

Turning to `O=C1NCCn2c1c(-c1ccc(Cl)cc1)c1ncccc12` [Example 19, 10-(4-Chlorophenyl)-7,8-dihydropyrido[2′,3′:4,5]pyrrolo[1,2-a]pyrazin-9(6H)-one], the IC50 at Human PDE4B1 (setting [2]) is 18.5 nM; on human PDE4D3 (setting [2]), 1600 nM.

`O=C1c2c(-c3ccc(F)cn3)c3ncccc3n2CCN1C1CC1` [Example 62, 8-Cyclopropyl-10-(5-fluoropyridin-2-yl)-7,8-dihydropyrido[2′,3′:4,5]pyrrolo[1,2-a]pyrazin-9(6H)-one]: the IC50 on Human PDE4B1 (setting [2]) is 332 nM; on human PDE4D3 (setting [2]), over 30000 nM.

Turning to `O=c1c2c(-c3ccc(Cl)cc3)c3ncccc3n2ccn1-c1nnc[nH]1` [Example 6, 10-(4-Chlorophenyl)-8-(4H-1,2,4-triazol-3-yl)pyrido[2′,3′:4,5]pyrrolo[1,2-a]pyrazin-9(8H)-one], the IC50 came out at 8.32 nM at Human PDE4B1 (setting [2]) and 2670 nM on human PDE4D3 (setting [2]).

In the case of `COc1ncc(-c2c3n(c4cncnc24)CCN(C2CC2)C3=O)cn1` [Example 89, 8-Cyclopropyl-10-(2-methoxypyrimidin-5-yl)-7,8-dihydropyrazino[1′,2′:1,5]pyrrolo[3,2-d]pyrimidin-9(6H)-one], the IC50 was 2960 nM at Human PDE4B1 (setting [1]) and over 30000 nM on human PDE4D3 (setting [1]).

Consider `CCCN1CCn2c(c(-c3ccc(Cl)cc3)c3ncccc32)C1=O` [Example 17, 10-(4-Chlorophenyl)-8-propyl-7,8-dihydropyrido[2′,3′:4,5]pyrrolo[1,2-a]pyrazin-9(6H)-one], for which the IC50 at Human PDE4B1 (setting [2]) came to 1 nM; on human PDE4D3 (setting [2]) it was 81 nM.

As for `COc1ccc(-c2c3n(c4cccnc24)CCN(C2CC2)C3=O)cn1` [Example 53, 8-Cyclopropyl-10-(6-methoxypyridin-3-yl)-7,8-dihydropyrido[2′,3′:4,5]pyrrolo[1,2-a]pyrazin-9(6H)-one], the IC50 on Human PDE4B1 (setting [2]) is 6.54 nM; at human PDE4D3 (setting [2]), 426 nM.

In the case of `CCN1CCn2c(c(-c3ccc(Cl)cc3)c3ncccc32)C1=O` [Example 31, 10-(4-Chlorophenyl)-8-ethyl-7,8-dihydropyrido[2′,3′:4,5]pyrrolo[1,2-a]pyrazin-9(6H)-one], the IC50 is 2.43 nM on Human PDE4B1 (setting [2]) and 87.9 nM on human PDE4D3 (setting [2]).

In the case of `CN1CCn2c(c(-c3ccc(Cl)cc3)c3ncccc32)C1=O` [Example 30, 10-(4-Chlorophenyl)-8-methyl-7,8-dihydropyrido[2′,3′:4,5]pyrrolo[1,2-a]pyrazin-9(6H)-one], the IC50 was 27.9 nM on Human PDE4B1 (setting [2]) and 803 nM on human PDE4D3 (setting [2]).

On to `O=C1c2c(-c3ccc(Cl)cc3)c3ncccc3n2C[C@H]2CCCN12` [Example 3, (6aR)-12-(4-Chlorophenyl)-6a, 7,8,9-tetrahydro-6H,11H-pyrido[2′,3′:4,5]pyrrolo[1,2-a]pyrrolo[1,2-d]pyrazin-11-one, trifluoroacetate salt], for which the IC50 at Human PDE4B1 (setting [2]) is 1.38 nM; at human PDE4D3 (setting [2]), 150 nM.

On to `COc1ncc(-c2c3n(c4nccnc24)CCN(C2CC2)C3=O)cn1` [Example 87, 8-Cyclopropyl-10-(2-methoxypyrimidin-5-yl)-7,8-dihydropyrrolo[1,2-a:4,5-b′]dipyrazin-9(6H)-one], for which the IC50 was 2640 nM on Human PDE4B1 (setting [1]) and over 28700 nM at human PDE4D3 (setting [1]).

`O=C1c2c(-c3ccc(Cl)cc3)c3ncccc3n2CCN1c1nnc[nH]1` [Example 5, 10-(4-Chlorophenyl)-8-(4H-1,2,4-triazol-3-yl)-7,8-dihydropyrido[2′,3′:4,5]pyrrolo[1,2-a]pyrazin-9(6H)-one]: the IC50 was 5.87 nM on Human PDE4B1 (setting [2]) and 476 nM at human PDE4D3 (setting [2]).

`O=C1c2c(-c3ccc(Cl)cc3)c3ncccc3n2C[C@@H]2CCCN12` [Example 52, (6aS)-12-(4-Chlorophenyl)-6a,7,8,9-tetrahydro-6H,11H-pyrido[2′,3′:4,5]pyrrolo[1,2-a]pyrrolo[1,2-d]pyrazin-11-one]: the IC50 at Human PDE4B1 (setting [2]) was 12.4 nM; on human PDE4D3 (setting [2]) it was 1110 nM.
